Experimental data as given in US20260285850A1, “SUBSTITUTED OXAZOLIDINONES AND IMIDAZOLINONES AS HERBICIDES” (FMC CORPORATION, priority 2023, published 2026).

Key:
Assay type in all cases: in vivo
[1] = tested on: barnyardgrass (Echinochloa crus-galli); experiment: Test A preemergence soil spray, visual injury rating 0-100; settings: 10 days
Procedure, shortened: (§1)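 Scale 0–100 (no effect to complete control), visual, versus untreated controls, read 10 days after application. Application: preemergence directed spray onto seeded loam–sand soil, or postemergence to young plants; formulation in non-phytotoxic solvent with surfactant.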

[2] = tested on: blackgrass (Alopecurus myosuroides); experiment: as above; settings: 10 days
Procedure, shortened: as §1

corn (Zea mays) [3] = experiment: as above; settings: 10 days
Procedure, shortened: as §1

[4] = tested on: green foxtail (Setaria viridis); experiment: as above; settings: 10 days
Procedure, shortened: as §1

kochia (Bassia scoparia) [5] = experiment: as above; settings: 16 g ai/ha, 0 to 100 scale, 10 days
Procedure, shortened: as §1

[6] = tested on: oat, wild (wild oat, Avena fatua); experiment: as above; settings: 10 days
Procedure, shortened: as §1

[7] = tested on: palmer (palmer amaranth, palmer pigweed, Amaranthus palmeri); experiment: as above; settings: 10 days
Procedure, shortened: as §1

[8] = tested on: ragweed (common ragweed, Ambrosia artemisiifolia); experiment: as above; settings: 10 days
Procedure, shortened: as §1

[9] = tested on: ryegrass, Italian (italian ryegrass, Lolium multiflorum); experiment: as above; settings: 10 days
Procedure, shortened: as §1

soybean (Glycine max) [10] = experiment: as above; settings: 10 days
Procedure, shortened: as §1

[11] = tested on: wheat (Triticum aestivum); experiment: as above; settings: 10 days
Procedure, shortened: as §1

[12] = tested on: barnyardgrass (Echinochloa crus-galli); experiment: Test A postemergence application, visual injury rating 0-100
Procedure, shortened: as §1

[13] = tested on: blackgrass (Alopecurus myosuroides); experiment: as above
Procedure, shortened: as §1

corn (Zea mays) [14] = experiment: as above
Procedure, shortened: as §1

[15] = tested on: galium (catchweed bedstraw, Galium aparine); experiment: as above
Procedure, shortened: as §1

[16] = tested on: green foxtail (Setaria viridis); experiment: as above
Procedure, shortened: as §1

[17] = tested on: horseweed (Erigeron canadensis); experiment: as above
Procedure, shortened: as §1

kochia (Bassia scoparia) [18] = experiment: as above
Procedure, shortened: as §1

[19] = tested on: oat, wild (wild oat, Avena fatua); experiment: as above
Procedure, shortened: as §1

[20] = tested on: palmer (palmer amaranth, palmer pigweed, Amaranthus palmeri); experiment: as above
Procedure, shortened: as §1

[21] = tested on: ragweed (common ragweed, Ambrosia artemisiifolia); experiment: as above
Procedure, shortened: as §1

[22] = tested on: ryegrass, Italian (italian ryegrass, Lolium multiflorum); experiment: as above
Procedure, shortened: as §1

soybean (Glycine max) [23] = experiment: as above
Procedure, shortened: as §1

[24] = tested on: wheat (Triticum aestivum); experiment: as above
Procedure, shortened: as §1

[25] = tested on: barnyardgrass (Echinochloa crusgalli); experiment: Test B flooded paddy test, visual plant response rating 0-100; settings: 250 g ai/ha, Flood, applied to paddy water, evaluated after 13 days
Procedure, shortened: (§2)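 Plants were grown to the 2-leaf stage, then pots were flooded to 3 cm above the soil and compound was applied directly to the paddy water, with that depth kept throughout.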

[26] = tested on: ducksalad (Heteranthera limosa); experiment: as above; settings: 250 g ai/ha, Flood, applied to paddy water, evaluated after 13 days
Procedure, shortened: as §2

rice (Oryza sativa) = experiment: as above; settings: 250 g ai/ha, Flood, applied to paddy water, evaluated after 13 days
Procedure, shortened: as §2

[27] = tested on: sedge, umbrella (small-flower umbrella sedge, Cyperus difformis); experiment: as above; settings: 250 g ai/ha, Flood, applied to paddy water, evaluated after 13 days
Procedure, shortened: as §2

[28] = 62 g ai/ha, 0 = no effect, 100 = complete control
[29] = 62 g ai/ha, postemergence, 10 days, 0 = no effect, 100 = complete control
[30] = Postemergence, 16 g ai/ha, greenhouse 10 days, 0 no effect, 100 complete control

CCOC(=O)C1C=CC(NC(=O)C2(C)CN(c3cccc(OC(F)(F)F)c3)C(=O)O2)C1 (stereo not drawn) [Compound 102]
50: Blackgrass plant response rating (0 to 100 scale) [13, 30] | Galium plant response rating (0 to 100 scale) [15, 30] | Soybean plant response rating (0-100) (soybean (Glycine max) [23]; [29])
60: Corn plant response rating (0-100) (corn (Zea mays) [14]; [29]) | Oat, Wild plant response rating (0-100) [19, 29]
80: Barnyardgrass plant response rating (0-100) [12, 29]
30: Blackgrass plant response rating (0-100) [2, 28] | Oat, Wild plant response rating (0-100) [6, 28] | Barnyardgrass plant response rating (0 to 100 scale) [12, 30] | Soybean plant response rating (0 to 100 scale) (soybean (Glycine max) [23]; [30])
70: Ryegrass, Italian plant response rating (0-100) [9, 28] | Galium plant response rating (0-100) [15, 29] | Kochia plant response rating (0-100) (kochia (Bassia scoparia) [18]; [29]) | Ryegrass, Italian plant response rating (0-100) [22, 29]
0: Barnyardgrass plant response rating ([1]; 16 g ai/ha, 0 to 100 scale) | Barnyardgrass plant response rating (0-100) [1, 28] | Blackgrass plant response rating ([2]; 16 g ai/ha, 0 to 100 scale) | Corn plant response rating (corn (Zea mays) [3]; 16 g ai/ha, 0 to 100 scale) | Foxtail, Green plant response rating ([4]; 16 g ai/ha, 0 to 100 scale) | Kochia plant response rating (kochia (Bassia scoparia) [5]) | Oat, Wild plant response rating ([6]; 16 g ai/ha, 0 to 100 scale) | Pigweed, Palmer plant response rating ([7]; 16 g ai/ha, 0 to 100 scale) | Pigweed, Palmer plant response rating (0-100) [7, 28] | Ragweed plant response rating ([8]; 16 g ai/ha, 0 to 100 scale) | Ragweed plant response rating (0-100) [8, 28] | Ryegrass, Italian plant response rating ([9]; 16 g ai/ha, 0 to 100 scale) | Soybean plant response rating (soybean (Glycine max) [10]; 16 g ai/ha, 0 to 100 scale) | Soybean plant response rating (0-100) (soybean (Glycine max) [10]; [28]) | Wheat plant response rating ([11]; 16 g ai/ha, 0 to 100 scale) | Corn plant response rating (0 to 100 scale) (corn (Zea mays) [14]; [30]) | Kochia plant response rating (0 to 100 scale) (kochia (Bassia scoparia) [18]; [30]) | Pigweed, Palmer plant response rating (0 to 100 scale) [20, 30] | Ragweed plant response rating (0 to 100 scale) [21, 30] | Plant response rating, Barnyardgrass (0 to 100 scale, 0 is no effect and 100 is complete control) [25] | Plant response rating, Ducksalad (0 to 100 scale, 0 is no effect and 100 is complete control) [26] | Plant response rating, Rice (0 to 100 scale, 0 is no effect and 100 is complete control) (rice (Oryza sativa)) | Plant response rating, Sedge, Umbrella (0 to 100 scale, 0 is no effect and 100 is complete control) [27]
10: Corn plant response rating (0-100) (corn (Zea mays) [3]; [28]) | Foxtail, Green plant response rating (0-100) [4, 28] | Foxtail, Green plant response rating (0 to 100 scale) [16, 30] | Horseweed plant response rating (0-100) [17, 29] | Pigweed, Palmer plant response rating (0-100) [20, 29]
90: Blackgrass plant response rating (0-100) [13, 29]
20: Wheat plant response rating (0-100) [11, 28] | Foxtail, Green plant response rating (0-100) [16, 29] | Horseweed plant response rating (0 to 100 scale) [17, 30] | Oat, Wild plant response rating (0 to 100 scale) [19, 30] | Ragweed plant response rating (0-100) [21, 29] | Ryegrass, Italian plant response rating (0 to 100 scale) [22, 30] | Wheat plant response rating (0-100) [24, 29] | Wheat plant response rating (0 to 100 scale) [24, 30]
